Data reported in article PMC6843521, “Discrimination of Oviposition Deterrent Volatile β-Ionone by Odorant-Binding Proteins 1 and 4 in the Whitefly Bemisia tabaci” (Biomolecules, 2019).
Structures can show the parent of a compound that is named as a salt. Where two headings read alike, the source gives them in different places.

How the values were obtained:
OBP1 [1] = target: T1, OBP1 (Bemisia tabaci, UniProt A0A1S6JPY5); assay: Fluorescence competitive binding assay, recombinant OBP1 with 1-NPN probe
Procedure: (§1) N-Phenyl-1-naphthylamine (1-NPN), 4,4′-Dianilino-1,1′-binaphthyl-5,5′-disulfonic acid dipotassium salt (bis-ANS), β-ionone, α-ionone, and […] were diluted with chromatographic-grade methanol to a final concentration of 1 mmol·L^−1, and the protein was diluted with 50 mM Tris-HCl (pH 7.4) to a final concentration of 2 μmol·L^−1. When 1-NPN was used as fluorescent probe, the excitation wavelength of the fluorescence spectrophotometer was set to 337 nm, and the scanning range was 350−500 nm. When bis-ANS was used as fluorescent probe, the excitation wavelength of the fluorescence spectrophotometer was set to 295 nm, and the scanning range was 300−550 nm. The fluorescent probe was gradually added to the protein-containing quartz tube to make it close to saturation. According to the Scatchard equation [35], the binding dissociation constants K1-NPN of OBP1 and the fluorescent probe 1-NPN and Kbis-ANS of OBP4 and fluorescent probe bis-ANS were determined. Protein and fluorescent probes were added to the quartz dish (the final concentration was 2 μM), and ionone was gradually added to determine the binding ability of the protein and ionone, and the dissociation constant Ki was calculated using the formula: Ki = [IC50]/(1 + [L]/KL), where [IC50] is the concentration of the ligand at which the fluorescence intensity is reduced by half, [L] is the concentration of the free fluorescent probe, and KL is the binding dissociation constant of the protein and the fluorescent probe. N-Phenyl-1-naphthylamine (1-NPN, Chemical Abstract Service (CAS): 90-30-2), 4,4’-dianilino-1,1’-binaphthyl-5,5’-disulfonic acid dipotassium salt (bis-ANS, CAS: 65664-81-5), methanol (CAS: 67-56-1), α-ionone (CAS: 127-41-3), β-ionone (CAS: 14901-07-6), and dihydro-β-ionone (CAS: 17283-81-7) were purchased from Sigma-Aldrich (St. Louis, MO, USA).

OBP4 [2] = target: T2, OBP4 (Bemisia tabaci, UniProt A0A1S6JPY9); assay: Fluorescence competitive binding assay, recombinant OBP4 with bis-ANS probe
Procedure: as §1

OBP1 [3] = target: T1, OBP1; assay: Fluorescence competitive binding, OBP1 with bis-ANS as probe (Figure S2C)
Procedure: as §1

OBP4 [4] = target: T2, OBP4; assay: Fluorescence competitive binding, OBP4 with 1-NPN as probe (Figure S2D); conditions: OBP4, 1-NPN as probe
Procedure: as §1

B. tabaci = conditions: cited from earlier work
OBP8 = target: OBP8; design: method as in doi:10.1016/j.cropro.2009.10.001, PMID 19458158; conditions: B. tabaci OBP8; ref [9],[31]; cited from earlier work
flea beetle = system: flea beetle; design: method as in Caceres et al. [10]; conditions: ref Caceres et al. [10]; cited from earlier work
spider mite = system: spider mite; design: method as in Caceres et al. [10]; conditions: ref Caceres et al. [10]; cited from earlier work

T2 sequence (A0A1S6JPY9 entry or part of it): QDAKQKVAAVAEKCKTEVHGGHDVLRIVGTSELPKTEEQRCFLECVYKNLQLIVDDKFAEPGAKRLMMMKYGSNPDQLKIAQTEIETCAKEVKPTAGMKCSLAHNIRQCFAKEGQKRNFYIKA
T1 sequence (A0A1S6JPY5 entry or part of it): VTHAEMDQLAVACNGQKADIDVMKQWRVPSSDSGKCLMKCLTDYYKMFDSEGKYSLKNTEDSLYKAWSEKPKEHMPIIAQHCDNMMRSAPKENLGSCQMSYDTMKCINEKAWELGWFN

binding ability (words) (OBP1 [3])	binding ability (words) (OBP4 [4])	Compound	binding ability (words) (OBP1 [1]; OBP1, 1-NPN probe)	binding ability (words) (OBP4 [2]; OBP4, bis-ANS probe)	IC50 (OBP1 [1]) [µM]	IC50 (OBP4 [2]) [µM]	other results
		c1ccc(Nc2cccc3ccccc23)cc1 [1-NPN, N-Phenyl-1-naphthylamine, reference compound]					Kd (OBP1 [1]): 3.38 µM
		O=S(=O)(O)c1cccc2c(-c3ccc(Nc4ccccc4)c4c(S(=O)(=O)O)cccc34)ccc(Nc3ccccc3)c12 [bis-ANS, 4,4′-Dianilino-1,1′-binaphthyl-5,5′-disulfonic acid dipotassium salt, reference compound]					Kd (OBP4 [2]; OBP4 2 μmol·L^−1, 50 mM Tris-HCl pH 7.4, excitation 295 nm, read-out: dissociation constant of fluorescent probe (Scatchard)): 2.68 µM
did not	did not	CC(=O)CCC1=C(C)CCCC1(C)C [dihydro-β-ionone]	hardly displaced the fluorescent probe	hardly displaced the fluorescent probe			IC50 (OBP1 [1]; OBP1, 1-NPN probe, dash symbol of Table S2, read-out: IC50): > 50 µM; IC50 (OBP4 [2]; OBP4, bis-ANS probe, dash symbol of Table S2, read-out: IC50): > 50 µM
bonded well	bonded well	CC(=O)/C=C/C1=C(C)CCCC1(C)C [β-ionone]			7.16	5.14	B. tabaci egg production (B. tabaci; concentrations of 0.1 ng/μL and 0.5 ng/μL, ref Cáceres et al. [10]): significantly inhibit; oviposition deterrence to whiteflies (B. tabaci; ref Caceres et al. [10]): significant oviposition deterrence; Ki (OBP8): 13.3 µM; repellent effect (flea beetle): strong repellent effect; repellent effect (spider mite): strong repellent effect

Compound	binding ability (words) (OBP1 [3])	binding ability (words) (OBP4 [4])	binding ability (words) (OBP1 [1]; OBP1, 1-NPN probe)	binding ability (words) (OBP4 [2]; OBP4, bis-ANS probe)	IC50 (OBP1 [1]) [µM]	IC50 (OBP4 [2]) [µM]	other results
CC(=O)/C=C/C1C(C)=CCCC1(C)C (stereo not drawn) [α-ionone]	did not	did not	weak binding	weak binding	40.1	21.1	binding ability (words) (OBP1 [1]; OBP1, 1-NPN probe, listed as α-Ionone): weaker binding; binding ability (words) (OBP4 [2]; OBP4, bis-ANS probe, listed as α-Ionone): weaker binding; ovipositioning repellent to whitefly (B. tabaci; doses of 0.05 ng/μL and 0.5 ng/μL, ref [10]): weak ovipositioning repellent
